From patent US5424451A, “Process for preparing aminoalkylcarbamic esters of eseroline” (priority 1992, dated 1995)
Like-named read-outs stand apart in the source and are kept apart here.

Columns and labels:
[1] = target: T1, acetylcholinesterase from human red blood cells (Homo sapiens, UniProt P22303); assay: Inhibition of acetylcholinesterase from human erythrocyte (Ellman colorimetric method); type: biochemical; conditions: for Activity against human red blood cells acetylcholinesterase (in words): Table 2 results
T1 construct: purchased Sigma Chemical; host or cells: human erythrocyte
T1 sequence (P22303 32-617 isoform P22303-2 limits assumed): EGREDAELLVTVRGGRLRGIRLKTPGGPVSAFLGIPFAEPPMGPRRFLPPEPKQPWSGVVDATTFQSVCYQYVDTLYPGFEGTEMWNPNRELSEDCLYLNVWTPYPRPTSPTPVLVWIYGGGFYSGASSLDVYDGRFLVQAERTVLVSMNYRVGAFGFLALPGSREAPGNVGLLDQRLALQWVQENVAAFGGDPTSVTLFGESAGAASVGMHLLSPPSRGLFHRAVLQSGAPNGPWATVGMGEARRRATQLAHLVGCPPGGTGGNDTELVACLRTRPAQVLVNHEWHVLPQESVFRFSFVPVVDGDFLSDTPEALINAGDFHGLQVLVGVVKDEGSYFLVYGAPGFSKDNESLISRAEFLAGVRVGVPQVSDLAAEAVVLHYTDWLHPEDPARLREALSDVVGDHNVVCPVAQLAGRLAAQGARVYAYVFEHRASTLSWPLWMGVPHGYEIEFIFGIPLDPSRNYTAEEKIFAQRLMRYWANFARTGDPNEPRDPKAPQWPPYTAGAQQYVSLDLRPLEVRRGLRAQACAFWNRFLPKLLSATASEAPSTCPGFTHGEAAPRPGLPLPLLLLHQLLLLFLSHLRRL

[2] = target: T2, butyrylcholinesterase from human serum (Homo sapiens, UniProt P06276); assay: Inhibition of butyrylcholinesterase from human serum (Ellman colorimetric method); type: biochemical
T2 construct: purchased Sigma Chemical; host or cells: human serum
T2 sequence (P06276 29-602): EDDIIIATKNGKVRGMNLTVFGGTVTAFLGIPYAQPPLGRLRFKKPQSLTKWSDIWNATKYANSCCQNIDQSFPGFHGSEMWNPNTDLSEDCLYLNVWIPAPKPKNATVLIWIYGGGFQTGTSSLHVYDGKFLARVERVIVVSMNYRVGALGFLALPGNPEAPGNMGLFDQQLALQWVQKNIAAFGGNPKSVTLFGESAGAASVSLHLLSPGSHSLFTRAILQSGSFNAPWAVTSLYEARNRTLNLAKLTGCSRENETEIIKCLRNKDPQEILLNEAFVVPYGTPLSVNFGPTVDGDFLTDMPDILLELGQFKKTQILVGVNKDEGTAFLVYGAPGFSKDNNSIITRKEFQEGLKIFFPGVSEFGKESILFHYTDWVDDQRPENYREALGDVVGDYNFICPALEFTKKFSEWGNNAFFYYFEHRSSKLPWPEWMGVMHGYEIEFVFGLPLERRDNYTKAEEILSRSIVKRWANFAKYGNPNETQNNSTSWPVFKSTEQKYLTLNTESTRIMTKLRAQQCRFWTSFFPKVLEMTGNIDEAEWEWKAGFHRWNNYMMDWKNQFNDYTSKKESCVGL

[3] = target: T3, acetylcholinesterase from electric eel (Electrophorus electricus, UniProt O42275); assay: biochemical
T3 construct: purchased Sigma Chemical; host or cells: electric eel
T3 sequence (O42275 24-633): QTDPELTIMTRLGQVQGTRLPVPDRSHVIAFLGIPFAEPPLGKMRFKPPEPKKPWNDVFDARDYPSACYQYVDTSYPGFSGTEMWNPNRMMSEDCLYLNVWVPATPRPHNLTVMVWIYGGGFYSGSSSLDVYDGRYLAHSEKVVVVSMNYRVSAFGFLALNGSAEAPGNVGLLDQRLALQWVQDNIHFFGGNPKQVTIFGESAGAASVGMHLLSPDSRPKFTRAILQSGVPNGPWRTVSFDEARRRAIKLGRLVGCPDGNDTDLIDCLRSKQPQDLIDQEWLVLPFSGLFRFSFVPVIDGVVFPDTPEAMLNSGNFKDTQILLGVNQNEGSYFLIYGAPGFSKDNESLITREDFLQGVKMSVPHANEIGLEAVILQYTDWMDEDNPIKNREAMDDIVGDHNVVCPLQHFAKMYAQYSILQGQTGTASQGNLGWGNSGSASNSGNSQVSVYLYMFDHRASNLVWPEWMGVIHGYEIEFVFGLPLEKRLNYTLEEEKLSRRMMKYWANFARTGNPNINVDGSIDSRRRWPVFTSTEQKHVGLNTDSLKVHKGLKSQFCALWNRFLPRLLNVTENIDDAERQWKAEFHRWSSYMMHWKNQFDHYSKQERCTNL

in vivo = conditions: rat, po
[4] = Cholinesterase Inhibition IC50, AChE hRBC, contact time 30'
[5] = Cholinesterase Inhibition IC50, AChE hRBC, contact time 60'
[6] = contact time 10', read-out: Cholinesterase Inhibition IC50, AChE hRBC
[7] = Cholinesterase Inhibition IC50, AChE E.eel, contact time 10'
[8] = Cholinesterase Inhibition IC50, AChE hRBC, contact time 10'
[9] = Cholinesterase Inhibition IC50, AChE E.eel, contact time 30'

Row | SMILES | IC50 [1, 8] [nM] | Activity against human red blood cells acetylcholinesterase (in words) [1] | also measured
1 | CN1CC[C@@]2(C)c3cc(OC(=O)NCCN4CCOCC4)ccc3N(C)[C@@H]12 [MF 214, N-morpholinylethylcarbamoyleseroline] |  |  | IC50 [1, 4]: 140 nM; IC50 [1, 5]: 110 nM; IC50 [1, 6]: 700 nM; IC50 [2]: 4100 nM
2 | CN1CC[C@@]2(C)c3cc(OC(=O)NCCCN4CCOCC4)ccc3N(C)[C@@H]12 [MF 218, N-morpholinylpropylcarbamoyleseroline] |  |  | IC50 [1, 6]: 3800 nM
3 | CN1CCN(CCCCCCCCCCCCNC(=O)Oc2ccc3c(c2)[C@]2(C)CCN(C)[C@@H]2N3C)CC1 [MF 229] | 60 | Particularly active | IC50 [3, 7]: 40 nM
4 | CN1CCN(CCCCCCCCNC(=O)Oc2ccc3c(c2)[C@]2(C)CCN(C)[C@@H]2N3C)CC1 [MF 230, N-(N-methylpiperazinyloctyl)carbamoyleseroline] | 30 | Particularly active | IC50 [3, 7]: 200 nM; IC50 [3, 9]: 80 nM; IC50 [1, 4]: 50 nM; LD50 (in vivo): 27.7 mg/kg
5 | CN1CC[C@@]2(C)c3cc(OC(=O)NCCCCCCCCCCN4CCOCC4)ccc3N(C)[C@@H]12 [MF 231] |  | Particularly active | IC50 [3, 7]: 60 nM; IC50 [1, 6]: 40 nM; LD50 (in vivo): 40 mg/kg
6 | CN1CC[C@@]2(C)c3cc(OC(=O)NCCCCCCCCCCCN4CCOCC4)ccc3N(C)[C@@H]12 [MF 232] |  |  | IC50 [3, 7]: 70 nM; IC50 [1, 6]: 40 nM
7 | CN1CC[C@@]2(C)c3cc(OC(=O)NCCCCCCCCCN4CCOCC4)ccc3N(C)[C@@H]12 [MF 233] |  | Particularly active | IC50 ([3]; read-out: Cholinesterase Inhibition IC50, AChE E.eel, contact time 10'): 140 nM; IC50 [1, 6]: 60 nM
8 | CCN(CC)CCCCCCCCNC(=O)Oc1ccc2c(c1)[C@]1(C)CCN(C)[C@@H]1N2C [MF 237] | 110 | Particularly active | IC50 [3, 7]: 340 nM; IC50 [3, 9]: 190 nM; IC50 ([3]; Cholinesterase Inhibition IC50, AChE E.eel, contact time 60'): 120 nM; IC50 [1, 4]: 70 nM; IC50 [1, 5]: 30 nM
9 | CN1CC[C@@]2(C)c3cc(OC(=O)NCCCCCCCCN4CCSCC4)ccc3N(C)[C@@H]12 [MF 239] | 50 | Particularly active | LD50 (in vivo): 23.8 mg/kg
10 | CC(=O)N1CCN(CCCCCCCCNC(=O)Oc2ccc3c(c2)[C@]2(C)CCN(C)[C@@H]2N3C)CC1 [MF 240] | 240 |  | 
11 | CN1CC[C@@]2(C)c3cc(OC(=O)NCCCCCCCCN4CCCCC4)ccc3N(C)[C@@H]12 [MF 241, N-piperidinyloctylcarbamoyleseroline] | 100 | Particularly active | 
12 | CN(CCCCCCCCN1CCOCC1)C(=O)Oc1ccc2c(c1)[C@]1(C)CCN(C)[C@@H]1N2C [MF 243, N-(morpholinyloctyl),N-methyl carbamoyl eseroline] | 7400 |  | 
13 | CN1CCN(C(=O)CCCCCNC(=O)Oc2ccc3c(c2)[C@]2(C)CCN(C)[C@@H]2N3C)CC1 [MF 245] | 5500 |  | 
14 | CC(=O)N1CCN(CCNC(=O)Oc2ccc3c(c2)[C@]2(C)CCN(C)[C@@H]2N3C)CC1 [MF 246] | 20000 |  | 
15 | CCN(CC)CCCCCCCCCCNC(=O)Oc1ccc2c(c1)[C@]1(C)CCN(C)[C@@H]1N2C [MF 247] | 17 | Particularly active | 
16 | CN1CC[C@@]2(C)c3cc(OC(=O)NCCCCCCCCCCN4CCCCC4)ccc3N(C)[C@@H]12 [MF 248] | 19 | Particularly active | LD50 (in vivo): 15.3 mg/kg
17 | CN1CC[C@@]2(C)c3cc(OC(=O)NCCCCCCCCCCCCN4CCCCC4)ccc3N(C)[C@@H]12 [MF 249] | 50 | Particularly active | 
18 | CN1CC[C@@]2(C)c3cc(OC(=O)NCCCCCCCCN4CC=CC4)ccc3N(C)[C@@H]12 [MF 250] | 30 |  | 
19 | CN1CC[C@@]2(C)c3cc(OC(=O)NCCCCCCCCN4CCCC4)ccc3N(C)[C@@H]12 [MF 251, N-pyrrolidinyloctylcarbamoyleseroline] | 70 | Particularly active | 

Row | SMILES | IC50 [1, 8] [nM] | Activity against human red blood cells acetylcholinesterase (in words) [1] | also measured
20 | CC(=O)N1CCN(CCCCCCCCCCNC(=O)Oc2ccc3c(c2)[C@]2(C)CCN(C)[C@@H]2N3C)CC1 [MF 252] | 27 | Particularly active | 
21 | CN1CC[C@@]2(C)c3cc(OC(=O)NCCCCCCCCCCN4CCCC4)ccc3N(C)[C@@H]12 [MF 253] | 30 | Particularly active | 
22 | CCN(CC)CCCCCCCCCCCCNC(=O)Oc1ccc2c(c1)[C@]1(C)CCN(C)[C@@H]1N2C [MF 254] | 50 | Particularly active | 
23 | CN1CCN(CCCCCCCCCCNC(=O)Oc2ccc3c(c2)[C@]2(C)CCN(C)[C@@H]2N3C)CC1 [MF 255] | 50 | Particularly active | 
24 | CCCN(CCC)CCCCCCCCNC(=O)Oc1ccc2c(c1)[C@]1(C)CCN(C)[C@@H]1N2C [MF 256] | 80 | Particularly active | LD50 (in vivo): 18.3 mg/kg
25 | CCCN(CCC)CCCCCCCCCCNC(=O)Oc1ccc2c(c1)[C@]1(C)CCN(C)[C@@H]1N2C [MF 257] | 30 | Particularly active | 
26 | CCCN(CCC)CCCCCCCCCCCCNC(=O)Oc1ccc2c(c1)[C@]1(C)CCN(C)[C@@H]1N2C [MF 258] | 1000 |  | 
27 | CCCN1CCN(CCCCCCCCNC(=O)Oc2ccc3c(c2)[C@]2(C)CCN(C)[C@@H]2N3C)CC1 [MF 261] | 20 | Particularly active | 
28 | CCN1CCN(CCCCCCCCNC(=O)Oc2ccc3c(c2)[C@]2(C)CCN(C)[C@@H]2N3C)CC1 [MF 262] | 30 | Particularly active | 
29 | CN(CCCCCCCCNC(=O)Oc1ccc2c(c1)[C@]1(C)CCN(C)[C@@H]1N2C)c1ccccc1 [MF 263] | 50 | Particularly active | 
30 | CN1CC[C@@]2(C)c3cc(OC(=O)NCCCCCCCCN4CCC5(CC4)OCCO5)ccc3N(C)[C@@H]12 [MF 265] | 80 | Particularly active | 
31 | CN1CC[C@@]2(C)c3cc(OC(=O)NCCCCCCCCN4CCN(Cc5ccccc5)CC4)ccc3N(C)[C@@H]12 [MF 266] | 70 | Particularly active | 
32 | C[C@@H]1CN(CCCCCCCCNC(=O)Oc2ccc3c(c2)[C@]2(C)CCN(C)[C@@H]2N3C)C[C@H](C)O1 [MF 268, 8-(cis-2,6-dimethylmorpholinyl)octylcarbamoyl eseroline] | 70 | Particularly active | IC50 [2]: 180 nM; LD50 (in vivo): 56 mg/kg
33 | CN1CC[C@@]2(C)c3cc(OC(=O)NCCCCCCCC(=O)N4CCOCC4)ccc3N(C)[C@@H]12 [MF 269] | 120 |  | 
34 | CC(C)CN1CCN(CCCCCCCCNC(=O)Oc2ccc3c(c2)[C@]2(C)CCN(C)[C@@H]2N3C)CC1 [MF 270] | 60 |  | 
35 | COCCN(CCCCCCCCNC(=O)Oc1ccc2c(c1)[C@]1(C)CCN(C)[C@@H]1N2C)CCOC [MF 271] | 50 | Particularly active | 
36 | CCCCN1CCN(CCCCCCCCNC(=O)Oc2ccc3c(c2)[C@]2(C)CCN(C)[C@@H]2N3C)CC1 [MF 273] | 30 | Particularly active | 
37 | CC(=O)N1CCN(CCCCCCCCCCCCNC(=O)Oc2ccc3c(c2)[C@]2(C)CCN(C)[C@@H]2N3C)CC1 [MF 275] | 50 |  | 
38 | C[C@@H]1CN(CCCCCCCCNC(=O)Oc2ccc3c(c2)[C@]2(C)CCN(C)[C@@H]2N3C)C[C@@H](C)O1 [MF 276, 8-(trans-2,6-dimethyl)morpholinyloctylcarbamoyl eseroline] |  | Particularly active | IC50 ([1]; read-out: Cholinesterase Inhibition IC50, AChE hRBC, contact time 10'): 70 nM; IC50 ([2]; read-out: Cholinesterase Inhibition IC50, BuChE hserum, contact time 10'): 250 nM
